From publication PMC3906007, “Discovery of a Small Molecule Agonist of Phosphatidylinositol 3-Kinase p110α That Reactivates Latent HIV-1” (PLoS ONE, 2014) come the findings set out here.

Like-named read-outs stand apart in the source and are kept apart here.

For one data set, the target named is T1, HDAC1 (Homo sapiens, UniProt Q13547).
T1 construct: purchased BPS Bioscience (San Diego, CA)
In words: Fluorogenic HDAC activity assay, HDAC1. The class given is biochemical. The procedure: The lysine deacetylase activity of HDACs 1, 2, 3, and 8 was assessed using the Fluorogenic HDAC Assay (BPS Bioscience, San Diego, CA) according to the manufacturer's instructions. The HDAC3 used in this assay was complexed with human nuclear receptor co-repressor 2 (NCOR2; amino acids 395–489), which is an activating co-factor of this HDAC isoform. All assays were carried out under steady-state conditions and the assay read-out was optimized for linearity both as a function of time and enzyme concentration. The formation of the fluorescent product was measured using a SpectraMax M2 Plate Reader (Molecular Devices, CA). The excitation and emission wavelengths were 360 nm and 450 nm, respectively. […]

In data set [1] the test system is latent HIV-1 in ACH2 and U1 cell lines. Briefly: Latent HIV-1 reactivation, range across cell lines of virus latency. Conditions: Human immunodeficiency virus 1, ACH-2, read-out: EC50, reactivation of latent HIV-1 gene expression. The class given is cell-based.
Data set [2] in a line: Cytotoxicity (MTT or CellTiter 96), 293T. The class given is cell-based. Conditions: human, 293T cells; 24 hour incubation; mean ± SD, 3 replicates. The procedure:
(§1) Following a 24 hour incubation period, cell viability was measured using either the MTT (Roche Applied Science, Indianapolis, IN) or CellTiter 96 proliferation (Promega, WI) assay.

Data set [3] can be described thus: Cytotoxicity (MTT or CellTiter 96), CD8+-depleted MNC. It is filed as cell-based. Particulars: human, CD8+-depleted mononuclear cells (MNC) from whole blood; 24 hour incubation; mean of 2 replicates. As to the method:
as §1
(§2) CD8+T-cells were depleted from whole blood using RosetteSep Human CD8 Depletion Cocktail (StemCell Technologies, Vancouver, BC) according to manufacturer's instructions. 2×10^6 CD4^+ MNC cells were seeded in triplicate per treatment in 48-well plates and allowed to rest overnight. All wells were maintained in 81 nM efavirenz. […] Activation controls were treated with CD3/CD28 Dynabeads (Life Technologies, Grand Island, NY). After 7 days of incubation, supernatants from triplicate wells were pooled, centrifuged (500 g×5 min), and stored at −80°C. HIV-1 RNA levels in supernatants were determined using the COBAS® AmpliPrep/COBAS® TaqMan® HIV-1 Test, v2.0 (Roche, Indianapolis, IN).

Data set [4] concerns latent HIV-1 in CD8+-depleted MNC. The class given is cell-based. Conditions: for Copies HIV RNA/mL: 7 days.
Excerpt: Healthy HIV-1 uninfected blood donors and HIV-1-infected donors on suppressive cART with plasma HIV-1 RNA less than 50 copies/mL for >2 year provided written informed consent and underwent a large volume phlebotomy (100–200 mLs). The protocol for blood donation was approved by the Institutional Review Board of the University of Pittsburgh (IRB #PRO10070203).
as §2, with “overnight.” for “overnight. All wells were maintained in 81 nM efavirenz.”

A further data set has as its target T2, HDAC3 (Homo sapiens, UniProt O15379).
T2 construct: purchased BPS Bioscience (San Diego, CA)
In words: Fluorogenic HDAC activity assay, HDAC3 complexed with NCOR2. The class given is biochemical. The procedure:
The lysine deacetylase activity of HDACs 1, 2, 3, and 8 was assessed using the Fluorogenic HDAC Assay (BPS Bioscience, San Diego, CA) according to the manufacturer's instructions. […] All assays were carried out under steady-state conditions and the assay read-out was optimized for linearity both as a function of time and enzyme concentration. The formation of the fluorescent product was measured using a SpectraMax M2 Plate Reader (Molecular Devices, CA). The excitation and emission wavelengths were 360 nm and 450 nm, respectively.

The test system of the next data set is PI3K p110β RNA. The class given is cell-based. Particulars: J89GFP cells; 5 µM.
A short description of data set [5]: Cytotoxicity (MTT or CellTiter 96), Jurkat. It is filed as cell-based. Particulars: human, Jurkat cells; 24 hour incubation; mean ± SD, 3 replicates. As to the method: as §1
A further data set deals with T3, PI3K p110α.
T3 construct: purchased Millipore (Billerica, MA)
In words: PI3K activity assay (PIP3 production, Millipore kit) in combination with wortmannin, p110α. It is filed as biochemical. Particulars: recombinant purified enzyme; 100 nM wortmannin + 5 µM compound. The procedure: The production of phosphatidylinositol (3,4,5)-triphosphate (PIP3) by the four class I PI3K isoenzymes (p110 α, β, γ, δ) was assessed using the PI3 Kinase Activity/Inhibitor Assay Kit (Millipore, Billerica, MA) according to the manufacturer's instructions. This assay works on the principle that the PH domain of the protein GRP-1 binds PIP3 with high affinity and specificity. This protein binds to the glutathione plate and captures either the PIP3 generated as part of the kinase reaction or the biotinylated-PIP3 tracer included in the kit. The captured biotinylated-PIP3 is detected using streptavidin-HRP conjugate and a colorimetric read out (OD 450).
The class I PI3Ks are heterodimeric enzymes formed by association of a p110 catalytic subunit with a p85 regulatory subunit. There are 4 variants of the p110 catalytic subunit designated p110α, β, δ or γ [22]. […] Briefly, in this assay the PIP3 generated as part of the kinase reaction or the biotinylated-PIP3 tracer included in the kit is captured on a glutathione plate via its interaction with the pleckstrin homology (PH) domain of the glutathione S-transferase (GST)-fusion protein general receptor for phosphoinositides-1 (GRP-1). The captured biotinylated-PIP3 is then detected using a streptavidin-HRP conjugate and a colorimetric read out.

T2 sequence (O15379 whole entry): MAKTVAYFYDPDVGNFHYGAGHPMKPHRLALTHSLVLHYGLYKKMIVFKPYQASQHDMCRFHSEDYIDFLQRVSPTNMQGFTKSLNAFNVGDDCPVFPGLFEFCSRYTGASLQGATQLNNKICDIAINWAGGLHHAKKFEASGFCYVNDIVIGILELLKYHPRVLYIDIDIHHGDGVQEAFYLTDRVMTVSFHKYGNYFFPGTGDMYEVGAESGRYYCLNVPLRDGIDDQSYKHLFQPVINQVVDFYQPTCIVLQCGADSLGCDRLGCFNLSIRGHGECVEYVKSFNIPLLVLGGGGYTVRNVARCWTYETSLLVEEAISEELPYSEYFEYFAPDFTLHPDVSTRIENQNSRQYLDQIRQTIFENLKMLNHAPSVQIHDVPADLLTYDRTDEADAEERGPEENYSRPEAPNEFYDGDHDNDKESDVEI
T2 sequence (Q9Y618 395-489 partner limits assumed): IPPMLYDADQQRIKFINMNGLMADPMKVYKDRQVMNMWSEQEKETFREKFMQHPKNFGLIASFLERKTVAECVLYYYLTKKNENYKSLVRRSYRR
T1 sequence (Q13547 whole entry): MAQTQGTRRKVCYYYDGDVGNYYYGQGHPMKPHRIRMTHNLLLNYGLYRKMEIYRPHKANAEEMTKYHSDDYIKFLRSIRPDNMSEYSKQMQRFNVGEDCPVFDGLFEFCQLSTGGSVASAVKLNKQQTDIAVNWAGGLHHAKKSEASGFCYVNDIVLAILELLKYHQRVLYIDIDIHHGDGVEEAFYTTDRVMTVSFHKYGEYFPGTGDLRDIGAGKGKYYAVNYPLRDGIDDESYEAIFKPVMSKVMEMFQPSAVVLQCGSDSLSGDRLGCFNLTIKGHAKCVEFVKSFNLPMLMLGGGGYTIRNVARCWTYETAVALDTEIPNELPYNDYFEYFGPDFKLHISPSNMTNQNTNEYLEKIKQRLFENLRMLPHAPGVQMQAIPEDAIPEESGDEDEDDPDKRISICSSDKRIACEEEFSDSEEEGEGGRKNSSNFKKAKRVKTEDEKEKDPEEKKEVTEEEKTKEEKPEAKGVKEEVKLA

Take `COc1cc2c(cc1OC)-c1c(OC)c(OC)cc3ccnc(c13)C2=O` [Compound 57704, 1,2,9,10-tetramethoxy-7H-dibenzo[de,g]quinolin-7-one]: the IC50 at HDAC1 and against HDAC3 was more than 50 µM each time. Moreover, the EC50 in [1] lay in the range of 5 to 9 µM. In addition, the CC50 at 24 h in data set [2] worked out at 106 ± 31.4 µM; in [3] it was 80 µM; in [5], 92.9 ± 7.5 µM. Besides, the “Increase of HIV-1 RNA in culture supernatants compared to the control” value in [4] (5 µM 57704, mean of 4 donors) is approximately 4 fold. Moreover, the “CD8+-depleted blood mononuclear cell preparations (donors) with increased HIV-1 expression” value in [4] (4 donors on suppressive cART tested) is on record as 3 of 4. Further, the “Copies HIV RNA/mL” value turned out to be 0 copies/mL in data set [4] (donor 1, 1 µM 57704, control 96); 389 copies/mL in data set [4] (donor 1, 5 µM 57704, control 96); 79 copies/mL in [4] (donor 2, 1 µM 57704, control 0); 35 copies/mL in data set [4] (donor 2, 5 µM 57704, control 0); 10 copies/mL in data set [4] (donor 3, 1 µM 57704, control 0); 0 copies/mL in data set [4] (donor 3, 5 µM 57704, control 0). In addition, the “Copies HIV RNA/mL” value in data set [4] (donor 4, 1 µM 57704, control 20) is reported as 20 copies/mL. The “Decrease of PI3K p110β RNA levels” value in the data set on PI3K p110β RNA was approximately 2 fold. For the same compound, in the data set on PI3K p110α, the “Agonist activity: effect on inhibition of PI3K p110α by wortmannin” value is on record as “abrogated the ability of wortmannin to inhibit PI3K p110α”.

A word on the IC50: it is the concentration at which inhibition is half-maximal. Lower therefore signals inhibition by little substance. Broadly, the EC50 is the concentration giving half of the maximal effect. The CC50 is the concentration giving 50% cytotoxicity. Low readings indicate harm at low concentration, high ones better tolerance by the cells.
